The results in this text go back to ChEMBL document CHEMBL4831521, “Dual High-Resolution α-Glucosidase and PTP1B Inhibition Profiling Combined with HPLC-PDA-HRMS-SPE-NMR Analysis for the Identification of Potentially Antidiabetic Chromene Meroterpenoids from Rhododendron capitatum” (J Nat Prod, 2021).

The nature of assay [1]: Inhibition of Saccharomyces cerevisiae alpha-glucosidase using pNPG as substrate preincubated for 10 mins followed by substrate addition and measured for 35 mins by microplate photometric method.
In another assay the test system is Saccharomyces cerevisiae. In words: Inhibition of Saccharomyces cerevisiae alpha-glucosidase at 100 uM using pNPG as substrate preincubated for 10 mins followed by substrate addition and measured for 35 mins by microplate photometric method. The settings on record: time 45.0 min.
The target in assay [2] is T1, Tyrosine-protein phosphatase non-receptor type 1 (Homo sapiens, UniProt P18031).
T1 sequence (P18031 whole entry): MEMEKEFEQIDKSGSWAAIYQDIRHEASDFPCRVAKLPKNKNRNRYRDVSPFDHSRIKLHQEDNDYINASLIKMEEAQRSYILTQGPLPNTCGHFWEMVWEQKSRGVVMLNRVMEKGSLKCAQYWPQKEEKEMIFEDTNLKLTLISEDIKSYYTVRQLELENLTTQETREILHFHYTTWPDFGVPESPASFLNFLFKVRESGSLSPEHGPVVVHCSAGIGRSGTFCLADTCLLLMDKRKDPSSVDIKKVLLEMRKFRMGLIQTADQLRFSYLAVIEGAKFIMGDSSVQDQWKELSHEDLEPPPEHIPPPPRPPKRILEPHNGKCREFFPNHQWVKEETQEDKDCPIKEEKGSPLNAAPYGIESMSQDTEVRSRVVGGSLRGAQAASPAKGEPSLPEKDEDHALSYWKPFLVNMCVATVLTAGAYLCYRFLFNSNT
In words: Inhibition of human recombinant PTP1B (1 to 322 residues) expressed in Escherichia coli using pNPP as substrate preincubated with substrate for 10 mins followed by enzyme addition and measured for 10 mins by absorbance based analysis.

By IC50 is commonly meant the concentration needed to halve the response being measured. One may read the inhibition as the drop in the measured response relative to a control, in per cent. Regarding `CC(C)=CCC/C(C)=C/CC/C(C)=C/Cc1c(O)cc(C)c(C(=O)O)c1O` [GRIFOLIC ACID], the concentration for half-maximal inhibition (IC50) in assay [1] turned out to be 8 µM; in assay [2], 3.6 µM. For the same compound, the inhibition with Saccharomyces cerevisiae came to 99.7%.

In the case of `C/C(=C\CC[C@]1(C)C=Cc2c(cc(C)c(C(=O)O)c2O)O1)C/C=C\C(C)(C)O`, in assay [2], the IC50 was 68.1 µM.

With `C=C(CCC=C(C)C)[C@H](O)CC[C@]1(C)C=Cc2c(cc(C)c(C(=O)O)c2O)O1`, the half-maximal inhibitory concentration (IC50) in assay [1] was 18.6 µM; in assay [2] it was 6 µM. Also, the inhibition in the assay on Saccharomyces cerevisiae is 99.8%.

Consider `C=C(C/C=C/C(C)(C)O)[C@H](O)CC[C@]1(C)C=Cc2c(cc(C)c(C(=O)O)c2O)O1`, for which the inhibition in the assay on Saccharomyces cerevisiae came out at 36.9%. In assay [2], the concentration for half-maximal inhibition (IC50) stood at 28.2 µM.

`CC(C)=CCC/C(C)=C/CC[C@]1(C)C=Cc2c(cc(C)c(C(=O)O)c2O)O1`: the IC50 in assay [1] stood at 10.6 µM; in assay [2], 2.5 µM. The inhibition in the assay with Saccharomyces cerevisiae came out at 99.9%.

Turning to `CO[C@](C)(CCC=C(C)C)[C@H](O)CC[C@]1(C)C=Cc2c(cc(C)c(C(=O)O)c2O)O1` (mixture of isomers), the inhibition with Saccharomyces cerevisiae came to 15.6%.

With `C=C(C)[C@H](O)CCC(=C)[C@H](O)CC[C@]1(C)C=Cc2c(cc(C)c(C(=O)O)c2O)O1`, the concentration for half-maximal inhibition (IC50) turned out to be 93.5 µM in assay [1] and 36.3 µM in assay [2]. Further, the inhibition in the assay on Saccharomyces cerevisiae worked out at 63.5%.

`CC(C)=CCC[C@@](C)(O)[C@H](O)CC[C@]1(C)C=Cc2c(cc(C)c(C(=O)O)c2O)O1` (relative stereo): the inhibition in the assay with Saccharomyces cerevisiae is -1.8%.

`CO[C@@](C)(CCC=C(C)C)[C@H](O)CC[C@]1(C)C=Cc2c(cc(C)c(C(=O)O)c2O)O1` (relative stereo): the inhibition in the assay with Saccharomyces cerevisiae amounted to 23.8%. Besides, the concentration for half-maximal inhibition (IC50) in assay [2] came to 53.6 µM.

Consider `C=C(C)/C=C/C/C(C)=C/CC[C@]1(C)C=Cc2c(cc(C)c(C(=O)O)c2O)O1`, for which, in the assay with Saccharomyces cerevisiae, the inhibition was determined as 27.5%. Also, the IC50 in assay [2] amounted to 19.9 µM.

Turning to `Cc1c(O)cc(O)c2c1O[C@H](c1ccc(O)cc1)CC2=O`, the inhibition in the assay on Saccharomyces cerevisiae was 14.4%.

For `Cc1c(O)c(C)c2c(c1O)C(=O)C[C@@H](c1ccc(O)cc1)O2`, in the assay with Saccharomyces cerevisiae, the inhibition was 11.2%.

Consider `C[C@H]1O[C@H](O[C@H]2[C@H](O)[C@@H](O)[C@@H](O[C@H]3[C@H](O)[C@@H](O)C(O)O[C@@H]3CO)O[C@@H]2CO)[C@H](O)[C@@H](O)[C@@H]1N[C@H]1C=C(CO)[C@@H](O)[C@H](O)[C@H]1O` (some centres undefined) [ACARBOSE], for which, in assay [1], the IC50 amounted to 796 µM.

Turning to `COC(C)(C)[C@H](O)CC/C(C)=C/CC[C@]1(C)C=Cc2c(cc(C)c(C(=O)O)c2O)O1`, in the assay on Saccharomyces cerevisiae, the inhibition was determined as 17.2%.

For the compound `C=C(C)[C@H](O)CC/C(C)=C/CC[C@]1(C)C=Cc2c(cc(C)c(C(=O)O)c2O)O1`, the concentration for half-maximal inhibition (IC50) turned out to be 21.2 µM in assay [1] and 10.3 µM in assay [2]. In the assay with Saccharomyces cerevisiae, the inhibition was 99.6%.

As for `CC(C)=CCC[C@](C)(O)[C@H](O)CC[C@]1(C)C=Cc2c(cc(C)c(C(=O)O)c2O)O1` (mixture of isomers), in the assay with Saccharomyces cerevisiae, the inhibition was -1.8%.
